These results are taken from US6656916B1, “Glucocorticoid enhancement of gene expression” (Research Development Foundation, priority 1995, dated 2003).

For test [1], the system named is A549 cells. The test can be described thus: β-galactosidase (CPRG microtiter) activity in A549 cells transfected with reporter plasmid-cationic lipid. Particulars: for β-gal expression over untreated cells: 10^−6 M beclomethasone 4 hours; for βgal activity versus medium treated, transfected cells: then beclomethasone 4 hours prior to transfection. Type of test: cell-based, human.

Test [2] relates to A549 cells. The test can be described thus: X-gal staining, count of stained transfected A549 cells. The test is classed as cell-based, human. Particulars: BEC 10^−6 M 4 hours, DNA-DMRIE/DOPE, 48 hours, stained cells in 1×1 cm^2 area. Here is the method: All transfections were performed in OPTIMEM (GIBCO-Life Technologies). One μg of pCMVβ gal was combined with 4 μg of DMRIE/DOPE or 3 μg of DOSPA/DOPE in 1 ml of OPTIMEM and incubated for 15 minutes at room temperature. Cell monolayers were washed twice in serum-free medium then overlaid with 1 ml of transfection mixture and incubated for 2.5 hours at 37° C. in a humidified, 5% CO2. DNA-liposome overlay was replaced with DMEM plus 10% FBS and cells were incubated for 48 hours. Cell lysates were harvested and assayed for total protein according to the manufacturer's instructions (BCA assay, Pierce Chemical, Rockfield, Ill.) and β -galactosidase activity was determined using a Chlorophenored-β-D-galactopyranoside colorimetric microtiter assay as described (CPRG) assay (Boerhinger-Mannheim, Germany). […]
For stained cells, duplicate cell cultures of A549 cells were treated for 4 hours with beclomethasone dipropionate or medium only, then transfected with pCMVβgal using DMRIE/DOPE. At 48 hours, one set of cultures was lysed and βgal activity determined while the other set was fixed with neutral buffered formalin and stained with β-gal (duplicate wells for each treatment). Stained cells were counted in a 1×1 cm^2 area.

For test [3], the system named is A549 cells. In words: 3H-thymidine-labeled pCMVβgal plasmid-lipid uptake. Particulars: several concentrations, 4 hours pretreatment, uptake at 2 hours. Type of test: cell-based, human. Here is the method:
A549 cells were pretreated with medium or beclomethasone at the dose specified for 4 hours, then transfected with ^3H-thymidine-labeled pCMVβgal. Two hours post-transfection, cells were washed, lightly trypsinized and pelleted by centrifugation. Pellets were then lysed, resuspended, and liquid scintillation cocktail added. ^3H-thymidine-labeled pCMVβgal uptake (CPM) per sample was determined. Results represent the average and standard deviation from 4 experiments and each experimental point was performed in duplicate. Fold-change=CPM beclomethasone-pretreated/CPM medium pretreated.
^3H-thymidine-labeled pCMVβgal plasmid was prepared by adding 1 mCi of ^3H-TdR (^3H-TdR, 74GBq/mmol, Amersham) to a 25 ml overnight culture of pCMVβgal-transformed DH5α strain of Escherichia coli. Labeled plasmid was isolated using Qiagen tip columns (100 μg size, Chatsworth, Calif.) per manufacturer's instructions. Saturable binding of the labeled DNA was determined as follows. Serial dilutions, from 1 μg-0.125 μg of ^3-H-TdR-labeled DNA was added to A549 cells and incubated for either 2, 6 or 24 hours. […] Pellets were lysed in 100 μl of lysis buffer (0.1 M TRIS and 0.5% Triton X-100), liquid scintillation cocktail added (BCS, Amersham) and ^3H-plasmid label quantitated by liquid scintillation. […] Uptake was determined as described above.

Another test relates to primary rat lung cells. In words: β-gal activity in primary rat lung cells transfected with pCMVβgal-DMRIE/DOPE. Type of test: cell-based.
For test [4], the system named is A549 cells. In words: β-gal mRNA levels by RNA-specific PCR (RS-PCR). Type of test: cell-based, human.
Method: A549 cells were treated with 10^-6 M beclomethasone or medium for 4 hours. Cells were transfected with 1 μg/ml pCMVβgal plus 4 μg/ml DMRIE/DOPE. At times specified (hours) after transfection, total RNA was harvested, converted to cDNA and specific βgal messages amplified by RS-PCR as described below. RS-PCR samples were resolved on a 1% TAE agarose gel and transferred to nylon filter. Filter was hybridized to a ^32P-labeled βgal probe. Filter was analyzed by betascanner and bands of the appropriate size counted. Fold-change=βgal CPM in beclomethasone treated cells/βgal. CPM in medium-treated cells. […] Briefly, cells were pre-treated with beclomethasone at 10^-6 M and transfected as described above. After the incubation was complete, cells were lysed using acidified guanidinium isothiocyante (Fluka Chemical), containing 0.75 M sodium citrate and 1% sarkosyl. RNA was harvested using the RNAeasy system (Qiagen, Chatsworth, Calif.). Total RNA quantity was determined by A260 and, 0.5 μg of the RNA was run on a gel to determine RNA integrity. Using 0.3 μg of total RNA, cDNAs were prepared using MMLV reverse transcriptase (GIBCO, Life Technologies), substituting primer […] […] One μl of cDNA was spotted to duplicate nitrocellulose filters and counted by LSC. […] Blots were evaluated on a Betagen betascanner and CPM for bands of the correct size were determined.
Where [5] appears, read: various doses, 4 hours prior to transfection with pCMVβ gal or pSVβ using DMRIE/DOPE.

“Also recorded” adds a separate entry of the source. Like-named read-outs stand apart in the source and are kept apart here.

Take `C[C@@H]1C[C@@H]([C@H](O)CC2CC(=O)NC(=O)C2)C(=O)[C@@H](C)C1` [CHX, cycloheximide]: the “β-gal activity in control cells with protein synthesis inhibitor” value in the test with A549 cells [1] (CHX 10 μg/ml, 30 minutes + 4 hours) is “moderately suppressed the β-gal activity”.

With `CC1(C)O[C@@H]2C[C@H]3[C@@H]4C[C@H](F)C5=CC(=O)C=C[C@]5(C)[C@H]4[C@@H](O)C[C@]3(C)[C@]2(C(=O)CO)O1` [FLUN, flunisolide], in the test on A549 cells [1] (10^−6 M, 4 hours prior to transfection), the “Degree of β-gal enhancement compared with the other glucocorticoids” value was “less of an enhancing effect”. For the same compound, the “Enhancement of β-gal activity by other topical glucocorticoids (FIG. 2B)” value with A549 cells [1] (10^−6 M, 4 hours prior to transfection, pCMVβgal-DMRIE/DOPE) is “enhanced β-gal activity”.

In the case of `CCC(=O)OCC(=O)[C@@]1(OC(=O)CC)[C@@H](C)C[C@H]2[C@@H]3CCC4=CC(=O)C=C[C@]4(C)[C@@]3(Cl)[C@@H](O)C[C@@]21C` [beclomethasone, beclomethasone dipropionate], the “FOLD-CHANGE, X-GAL STAINING” value with A549 cells [2] is recorded as 1.5 ± 0.7. Besides, the “Uptake of radiolabeled plasmid” value with A549 cells [3] is recorded as “does not appear to enhance uptake”. Moreover, the “Enhancement of β-gal activity” value in the test with A549 cells [1] (5×10^−7 M to 10^−6 M, 4 hours prior to transfection, pCMVβgal-DMRIE/DOPE) is on record as 2-4 fold; in the test with A549 cells [1] (10^−7 M, 4 hours prior to transfection, pCMVβgal-DMRIE/DOPE) it was “only slight enhancement”; in the test with primary rat lung cells (4 hours pretreatment, pCMVβgal-DMRIE/DOPE, composite of several rat cell preparations), 2 fold. For the same compound, in the test on A549 cells [1] (10^−6 M), the “Minimum beclomethasone exposure required to see enhanced β-gal transfection” value lay in the range of 3 to 4 h. Further, the “β-gal expression over untreated cells” value in the test with A549 cells [1] (then IL-1β 4 hours prior to transfection) and with A549 cells [1] (then lipopolysacchride 4 hours prior to transfection) was 2 fold each time. For the same compound, in the test with A549 cells [1] (10^−6 M beclomethasone + CHX 10 μg/ml, 4 hours), the “Beclomethasone-mediated enhancement of β-gal activity in presence of CHX” value was “even greater in the presence of CHX”. Besides, in the test with A549 cells [1] (10^−6 M beclomethasone only, 4 hours), the “Enhancement of β-gal activity (FIG. 3)” value was found to be 2.5 fold. Besides, the “Pre-treatment time at which enhanced β-gal activity was maximized” value in the test on A549 cells [1] (10^−6 M, remained maximal for the 24 hours monitored) is no more than 8 h. Also, in the test on A549 cells [1] (BEC 10^−6 M 4 hours, DNA-DMRIE/DOPE, 48 hours), the “FOLD-CHANGE, βGAL ACTIVITY” value is 3. For the same compound, the “βgal activity versus medium treated, transfected cells” value is recorded as “augmented βgal activity above what was seen in medium treated, transfected cells” in the test with A549 cells [1] (IL-1β 4 hours first) and “augmented βgal activity above what was seen in medium treated, transfected cells” with A549 cells [1] (lipopolysacchride 4 hours first). Further, in the test on A549 cells [1] (alternate lipid, promoter or reporter), the “Concentration producing maximal enhanced reporter gene activity” value is listed as 5×10^−7 to 10^−6 M. The “β-gal expression with alternate cationic lipid” value in the test with A549 cells [1] (pCMVβgal and DOSPA/DOPE (FIG. 5A)) is listed as “also enhanced”. In addition, the “β-gal enhancement with SV40 promoter vector” value with A549 cells [1] (pSVβ-DMRIE/DOPE (FIG. 5B)) is listed as “enhancement was observed”. Moreover, the “Effectiveness of 10^−6 M compared with 10^−7 M” value with primary rat lung cells (10^−6 M) is reported as “less effective than was 10^−7 M”. Further, the “βgal activity, beclomethasone pretreatment followed by lipopolysacchride stimulation” value with primary rat lung cells (4 hours beclomethasone + 4 hours lipopolysacchride) is given as “restored βgal activity to that of the medium pre-treated cells”. Also, the “Concentration of optimum enhancement in βgal activity” value with primary rat lung cells (4 hours pretreatment) is given as 10^−7 M. Also, the “Steady-state β-gal mRNA levels versus medium-treated cells” value with A549 cells [4] (T=3 and T=24 hours, 10^−6 M) was “definite increase in steady-state m RNA levels”. Further, the “β-gal mRNA induction” value with A549 cells [4] (T=2 hours after transfection, 10^−6 M 4 hours pretreatment) stood at 18 fold.

`CC(C)CCC[C@@H](C)[C@H]1CC[C@H]2[C@@H]3CC=C4C[C@@H](O)CC[C@]4(C)[C@H]3CC[C@]12C` [cholesterol]: in the test on A549 cells [1] (setting [5]), the “Enhancement of β-gal / reporter gene expression by other steroids” value was “Enhancement of β-gal was only seen in the beclomethasone treated cells; also recorded: did not enhance reporter gene expression”.

On to `C[C@]12CC[C@@H]3c4ccc(O)cc4CC[C@H]3[C@@H]1CC[C@@H]2O` [estrogen, estradiol], for which, in the test with A549 cells [1], the “Enhancement of β-gal / reporter gene expression by other steroids” value was “Enhancement of β-gal was only seen in the beclomethasone treated cells; also recorded: did not enhance reporter gene expression”.

As to `CC(=O)[C@H]1CC[C@H]2[C@@H]3CCC4=CC(=O)CC[C@]4(C)[C@H]3CC[C@]12C` [progesterone], in the test on A549 cells [1] (setting [5]), the “Enhancement of β-gal / reporter gene expression by other steroids” value is “Enhancement of β-gal was only seen in the beclomethasone treated cells; also recorded: did not enhance reporter gene expression”.

Consider Interleukin-1β [IL-1β], for which the “β-gal activity relative to medium treated cells” value with A549 cells [1] (100 U/ml IL-1β or 0.5 μg/ml lipopolysacchride for 4 hours before transfection with pCMVβgal-DMRIE/DOPE) is on record as “decreased β-gal activity significantly; also recorded: suppressed the degree of β-gal expression”.

Turning to cyclosporine A, the “Reversal/enhancement of reporter gene expression by another immunosuppressant” value in the test on A549 cells [1] (cells pre-treated with cyclosporine A, cell type not stated) was “this effect was not seen; also recorded: the effect was not seen”.
